#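 Protocol summary: plate cells (96-well), add compound at 5 concentrations, incubate 48 h, interpolate endpoints linearly. The concentration for full growth arrest is given as TGI.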
# Experiments:
# Assay in all cases: NCI-60 cell line screen, 48 h
# [1] = test system: 786-0 renal
# [2] = test system: A498 renal
# [3] = test system: A549 NSCLC
# [4] = test system: ACHN renal
# [5] = test system: CCRF-CEM leukemia
# [6] = test system: COLO 205 colon
# [7] = test system: DLD-1 colon
# [8] = test system: DMS 114 small cell lung
# [9] = test system: DMS 273 small cell lung
# [10] = test system: EKVX NSCLC
# [11] = test system: HCC-2998 colon
# [12] = test system: HCT-15 colon
# [13] = test system: HL-60(TB) leukemia
# [14] = test system: HOP-62 NSCLC
# [15] = test system: HT29 colon
# [16] = test system: IGROV1 ovarian
# [17] = test system: K-562 leukemia
# [18] = test system: KM12 colon
# [19] = test system: KM20L2 colon
# [20] = test system: LOX IMVI melanoma
# [21] = test system: M19-MEL melanoma
# [22] = test system: MALME-3M melanoma
# [23] = test system: NCI-H226 lung
# [24] = test system: NCI-H23 lung
# [25] = test system: NCI-H460 lung
# [26] = test system: NCI-H522 lung
# [27] = test system: OVCAR-3 ovarian
# [28] = test system: OVCAR-4 ovarian
# [29] = test system: OVCAR-5 ovarian
# [30] = test system: OVCAR-8 ovarian
# [31] = test system: RPMI-8226 leukemia
# [32] = test system: RXF 393 renal
# [33] = test system: SF-268 CNS
# [34] = test system: SF-295 CNS
# [35] = test system: SF-539 CNS
# [36] = test system: SK-MEL-2 melanoma
# [37] = test system: SK-MEL-28 melanoma
# [38] = test system: SK-MEL-5 melanoma
# [39] = test system: SK-OV-3 ovarian
# [40] = test system: SN12C renal
# [41] = test system: SNB-19 CNS
# [42] = test system: SNB-75 CNS
# [43] = test system: SNB-78 CNS
# [44] = test system: SW-620 colon
# [45] = test system: TK-10 renal
# [46] = test system: U251 CNS
# [47] = test system: UACC-257 melanoma
# [48] = test system: UACC-62 melanoma
# [49] = test system: UO-31 renal
# [50] = test system: CAKI-1 renal
# [51] = test system: HCT-116 colon
# [52] = test system: HOP-18 NSCLC
# [53] = test system: HOP-92 NSCLC
# [54] = test system: M14 melanoma
# [55] = test system: MOLT-4 leukemia
# [56] = test system: SR leukemia
# [57] = test system: LXFL 529 NSCLC
# [58] = test system: BT-549 breast
# [59] = test system: DU-145 prostate
# [60] = test system: HS 578T breast
# [61] = test system: MCF7 breast
# [62] = test system: MDA-MB-231 breast
# [63] = test system: MDA-MB-435
# [64] = test system: MDA-N
# [65] = test system: NCI/ADR-RES ovarian
# [66] = test system: PC-3 prostate
# [67] = test system: T-47D breast
smiles,measurement,setting,value
O=C(Nc1ccccc1SC(/C=C/NNC1=NC(c2ccccc2)C(c2ccccc2)=NN1)c1ccccc1)c1ccc(Cl)cc1Cl (stereo not given),TGI,[1],> 100 µM
same,TGI,[2],> 100 µM
same,TGI,[3],> 100 µM
same,TGI,[4],> 100 µM
same,TGI,[5],> 100 µM
same,TGI,[6],> 100 µM
same,TGI,[7],> 100 µM
same,TGI,[8],> 100 µM
same,TGI,[9],> 100 µM
same,TGI,[10],> 100 µM
same,TGI,[11],> 100 µM
same,TGI,[12],> 100 µM
same,TGI,[13],> 100 µM
same,TGI,[14],73.5 µM
same,TGI,[15],> 100 µM
same,TGI,[16],> 100 µM
same,TGI,[17],> 100 µM
same,TGI,[18],> 100 µM
same,TGI,[19],> 100 µM
same,TGI,[20],> 100 µM
same,TGI,[21],> 100 µM
same,TGI,[22],> 100 µM
same,TGI,[23],99.6 µM
same,TGI,[24],55.6 µM
same,TGI,[25],> 100 µM
same,TGI,[26],> 100 µM
same,TGI,[27],> 100 µM
same,TGI,[28],94.8 µM
same,TGI,[29],> 100 µM
same,TGI,[30],> 100 µM
same,TGI,[31],> 100 µM
same,TGI,[32],> 100 µM
same,TGI,[33],> 100 µM
same,TGI,[34],> 100 µM
same,TGI,[35],60.2 µM
same,TGI,[36],45.6 µM
same,TGI,[37],> 100 µM
same,TGI,[38],> 100 µM
same,TGI,[39],> 100 µM
same,TGI,[40],> 100 µM
same,TGI,[41],> 100 µM
same,TGI,[42],> 100 µM
same,TGI,[43],> 100 µM
same,TGI,[44],> 100 µM
same,TGI,[45],> 100 µM
same,TGI,[46],64.6 µM
same,TGI,[47],> 100 µM
same,TGI,[48],> 100 µM
same,TGI,[49],94.6 µM
CN(C)CCNC(=O)C1COc2cc(-c3cc(=O)c4ccccc4o3)ccc2O1 (stereo not given),TGI,[1],36.3 µM
same,TGI,[2],33.7 µM
same,TGI,[3],35.5 µM
same,TGI,[4],33.1 µM
same,TGI,[50],38.3 µM
same,TGI,[5],> 100 µM
same,TGI,[6],31.7 µM
same,TGI,[7],> 100 µM
same,TGI,[9],36.3 µM
same,TGI,[10],> 100 µM
same,TGI,[11],> 100 µM
same,TGI,[51],29.6 µM
same,TGI,[12],> 100 µM
same,TGI,[13],58.9 µM
same,TGI,[52],56 µM
same,TGI,[14],> 100 µM
same,TGI,[53],> 100 µM
same,TGI,[15],34.6 µM
same,TGI,[16],48.3 µM
same,TGI,[17],> 100 µM
same,TGI,[19],56.5 µM
same,TGI,[20],38.3 µM
same,TGI,[54],32 µM
same,TGI,[21],> 100 µM
same,TGI,[22],36.2 µM
same,TGI,[55],40.7 µM
same,TGI,[23],49 µM
same,TGI,[24],> 100 µM
same,TGI,[25],> 100 µM
same,TGI,[26],31 µM
same,TGI,[27],43.7 µM
same,TGI,[28],33.2 µM
same,TGI,[29],> 100 µM
same,TGI,[30],70.1 µM
same,TGI,[31],85.1 µM
same,TGI,[32],38.8 µM
same,TGI,[33],50.9 µM
same,TGI,[34],93.6 µM
same,TGI,[35],32.9 µM
same,TGI,[37],36 µM
same,TGI,[38],28.8 µM
same,TGI,[39],53.8 µM
same,TGI,[40],78.8 µM
same,TGI,[41],57.8 µM
same,TGI,[42],43.1 µM
same,TGI,[43],57.8 µM
same,TGI,[56],39.5 µM
same,TGI,[44],44.5 µM
same,TGI,[45],75.9 µM
same,TGI,[46],40.3 µM
same,TGI,[47],34.7 µM
same,TGI,[48],34.9 µM
same,TGI,[49],> 100 µM
C[C@]12CCC(=O)C(O)=C1CCC2=O,TGI,[1],> 100 µM
same,TGI,[2],> 100 µM
same,TGI,[3],> 100 µM
same,TGI,[4],> 100 µM
same,TGI,[50],> 100 µM
same,TGI,[5],> 100 µM
same,TGI,[6],> 100 µM
same,TGI,[7],> 100 µM
same,TGI,[9],> 100 µM
same,TGI,[10],> 100 µM
same,TGI,[11],> 100 µM
same,TGI,[51],> 100 µM
same,TGI,[12],> 100 µM
same,TGI,[13],> 100 µM
same,TGI,[52],> 100 µM
same,TGI,[14],> 100 µM
same,TGI,[53],> 100 µM
same,TGI,[15],> 100 µM
same,TGI,[16],> 100 µM
same,TGI,[18],> 100 µM
same,TGI,[19],> 100 µM
same,TGI,[20],> 100 µM
same,TGI,[57],> 100 µM
same,TGI,[54],> 100 µM
same,TGI,[21],> 100 µM
same,TGI,[22],> 100 µM
same,TGI,[55],> 100 µM
same,TGI,[23],> 100 µM
same,TGI,[25],> 100 µM
same,TGI,[26],> 100 µM
same,TGI,[27],> 100 µM
same,TGI,[28],> 100 µM
same,TGI,[29],> 100 µM
same,TGI,[30],> 100 µM
same,TGI,[31],> 100 µM
same,TGI,[32],> 100 µM
same,TGI,[33],> 100 µM
same,TGI,[34],> 100 µM
same,TGI,[35],> 100 µM
same,TGI,[37],> 100 µM
same,TGI,[38],> 100 µM
same,TGI,[39],> 100 µM
same,TGI,[40],> 100 µM
same,TGI,[41],> 100 µM
same,TGI,[42],> 100 µM
same,TGI,[43],> 100 µM
same,TGI,[56],> 100 µM
same,TGI,[44],> 100 µM
same,TGI,[45],> 100 µM
same,TGI,[46],> 100 µM
same,TGI,[47],> 100 µM
same,TGI,[48],> 100 µM
same,TGI,[49],> 100 µM
CN(C)CCNc1ccc2nnn3c4ccc(O)cc4c(=O)c1c23,TGI,[1],15.4 µM
same,TGI,[2],12.1 µM
same,TGI,[3],13 µM
same,TGI,[4],26.1 µM
same,TGI,[58],28.5 µM
same,TGI,[50],20 µM
same,TGI,[5],32.9 µM
same,TGI,[6],18.2 µM
same,TGI,[7],22.7 µM
same,TGI,[8],20.9 µM
same,TGI,[59],18.6 µM
same,TGI,[10],18.5 µM
same,TGI,[11],19.6 µM
same,TGI,[51],13.5 µM
same,TGI,[12],13.4 µM
same,TGI,[13],23.6 µM
same,TGI,[52],50.5 µM
same,TGI,[14],17.2 µM
same,TGI,[53],26.5 µM
same,TGI,[60],11.5 µM
same,TGI,[15],16.1 µM
same,TGI,[16],17.2 µM
same,TGI,[17],> 37.7 µM
same,TGI,[18],13.5 µM
same,TGI,[19],22.7 µM
same,TGI,[20],6.41 µM
same,TGI,[57],19 µM
same,TGI,[54],21.2 µM
same,TGI,[22],19.5 µM
same,TGI,[61],16 µM
same,TGI,[62],4.81 µM
same,TGI,[63],17.1 µM
same,TGI,[64],15 µM
same,TGI,[55],9.56 µM
same,TGI,[23],23.6 µM
same,TGI,[24],17.3 µM
same,TGI,[25],11.4 µM
same,TGI,[26],18.8 µM
same,TGI,[65],12.6 µM
same,TGI,[27],27.8 µM
same,TGI,[28],9.63 µM
same,TGI,[29],19.9 µM
same,TGI,[30],16.8 µM
same,TGI,[66],12.1 µM
same,TGI,[31],24.6 µM
same,TGI,[32],14.3 µM
same,TGI,[33],20.7 µM
same,TGI,[34],15.3 µM
same,TGI,[35],15.6 µM
same,TGI,[36],22.6 µM
same,TGI,[37],23.4 µM
same,TGI,[38],12.2 µM
same,TGI,[39],29.7 µM
same,TGI,[40],23.9 µM
same,TGI,[41],31.8 µM
same,TGI,[42],32.1 µM
same,TGI,[43],31.7 µM
same,TGI,[56],16.4 µM
same,TGI,[44],15.6 µM
same,TGI,[67],27.1 µM
same,TGI,[45],31.9 µM
same,TGI,[46],16.2 µM
same,TGI,[47],22.2 µM
same,TGI,[48],19.7 µM
same,TGI,[49],13.8 µM

# From PubChem BioAssay (NCI)
